Assay results reported in US9120946B2, “Active energy ray curing type composition, container that accommodates composition, inkjet discharging device having container, and cured matter” (RICOH COMPANY, LTD., priority 2013, dated 2015).

What was measured:
[1] = evaluation in Material Safety Data Sheet; cited from earlier work
female mice = assay: skin sensitization test based on the LLNA (Local Lymph Node Assay), SI value by BrdU intake; assay type: in vivo; conditions: test substance 50.0 W/v % in acetone/olive oil 4:1, 25 μL to both auricles once a day for 3 days, SI less than 3 = negative
Description: The individuals remaining after the categorization were excluded from the test.
The test substance was weighed in a measuring flask, and the volume of the test substance was adjusted to 1 mL with the medium. The thus-prepared test substance preparation was placed in a light-shielded airtight container (made of glass).
This treatment was performed once a day for three consecutive days.
The surrounding tissue of each auricular lymph node was removed, and the auricular lymph nodes from both the auricles were collectively weighed.
After returning the auricular lymph nodes to room temperature, the auricular lymph nodes were mashed with the gradual addition of physiological saline, and suspended therein. The thus-obtained suspension was filtrated and thereafter dispensed into the wells of a 96-well microplate, with 3 wells being used per individual. The thus-dispensed suspensions were measured for intake of BrdU by the ELISA method. […] A multiplate reader (FLUOSTAR OPTIMA, product of BMG LABTECH Inc.) was used to measure the absorbance of each well (OD: 370 nm to 492 nm, the intake of BrdU), and the average of the absorbance of the 3 wells for each individual was used as the measurement of BrdU for the individual.

| Molecule | skin sensitization in MSDS [1] | SI values in LLNA test (female mice) |
| --- | --- | --- |
| caprolactone-modified dipentaerythritol hexaacrylate [a2] | Negative in MSDS |  |
| C=C(C)C(=O)OCCOCCOC(=O)C(=C)C [a1, diethyleneglycol dimethacrylate] |  | 1.1 |
| polypropylene glycol diacrylate [a5] |  | 1.5 |
